Target: T1, human TASK-2 channel (Homo sapiens, UniProt O95279)
T1 construct: expressed in transfected cells; host or cells: HEK cells (Human Embryonic Kidney cells)
T1 sequence (O95279 1-499): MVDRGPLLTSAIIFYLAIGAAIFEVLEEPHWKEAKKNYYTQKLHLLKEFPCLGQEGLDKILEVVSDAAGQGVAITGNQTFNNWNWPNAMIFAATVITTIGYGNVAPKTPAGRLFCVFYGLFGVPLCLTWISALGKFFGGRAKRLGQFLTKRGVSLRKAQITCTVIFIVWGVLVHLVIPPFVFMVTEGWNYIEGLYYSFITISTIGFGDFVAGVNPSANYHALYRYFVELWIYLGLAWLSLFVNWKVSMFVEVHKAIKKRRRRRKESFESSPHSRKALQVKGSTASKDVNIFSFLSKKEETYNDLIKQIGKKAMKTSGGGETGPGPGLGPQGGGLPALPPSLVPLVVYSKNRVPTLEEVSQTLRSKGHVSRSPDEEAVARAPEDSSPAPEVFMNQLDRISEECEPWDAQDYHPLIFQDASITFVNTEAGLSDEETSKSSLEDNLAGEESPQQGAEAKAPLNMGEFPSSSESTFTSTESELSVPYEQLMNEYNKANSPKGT
Test: Patch-clamp (whole cell) recording of TASK-2 current in transfected HEK cells
Format: cell-based
Conditions: Doxapram at 0.9 mM in the external bath; HEK cells transfected with human TASK-2 (pIRES-CD8-hTASK2); voltage jumps; FIG. 4
Experimental: The following screening is used. HEK cells (Human Embryonic Kidney cells) are transfected with a plasmid containing complementary DNA from the gene of the human TASK-2 channel (pIRES-CD8-hTASK2) by the lipofectamine method. After 24 hours of culture, the TASK-2 currents are recorded using the voltage-clamp method (patch-clamp in whole cell configuration). The currents are activated by jumps in voltage from a rest potential at […] to variable values ranging from −80 to +45 mV.
The currents are recorded in whole cell configuration using an EPC-10 amplifier (HEKA). The <> pipette contains a solution of 95 K-gluconate, 30 mM KCl, 4.8 mM Na2HPO4, 1.2 mM NaH2PO4, 5 mM glucose, 2.38 mM MgCl2, 0.726 mM CaCl2, 1 mM EGTA, 3 mM ATP, pH 7.2. The external solution is a RINGER solution: 145 mM NaCl, 0.4 mM KH2PO4, 1.6 mM K2HPO4, 5 mM glucose, 1 mM MgCl2, 1.3 mM CaCl2, 5 mM HEPES, pH 7.4.
Different drugs may be applied at different concentrations by perfusion of the external bath and their effects are evaluated by the change in the currents compared with the control conditions.

reduction of the TASK-2 current: 25%
SMILES: CCN1CC(CCN2CCOCC2)C(c2ccccc2)(c2ccccc2)C1=O (stereo not shown) [Doxapram]
